The target in one series is T1, MK2 enzyme (Homo sapiens, UniProt P49137).
T1 construct: MK2 enzyme (active enzyme (peptide 46-end (Millipore))); purchased Millipore
The series can be described thus: MK2 enzyme activity, IMAP fluorescence polarization assay. As to conditions: MK2 IMAP assay. Type of series: biochemical. The source says:
In another assay the MK2 kinase activity can be determined by using an IMAP assay (Immobilized Metal Assay for Phosphochemicals—based coupled assay). IMAP is a homogeneous fluorescence polarization (FP) assay based on affinity capture of phosphorylated peptide substrates. IMAP uses fluorescein-labeled peptide substrates that, upon phosphorylation by a protein kinase, bind to so called IMAP nanoparticles, which are derivatized with trivalent metal complexes. […] In such an assay, MK2 phosphorylates a fluorescein-labeled peptide substrate (see example 14).
MK2 enzyme activity is measured using the IMAP (immobilized metal ion affinity-based fluorescence polarization) assay as outlined below.
The enzyme is diluted to 100 U/mL the day before use in KR buffer (10 mM Tris-HCl, 10 mM MgCl2, 0.01% Tween-20, 0.05% NaN3, 2 mM DTT, pH 7.2) and stored overnight at −20° C.
The dilutions in DMSO are then diluted 50-fold in KR-buffer of which 5 μl is used in the assay, leading to a final compound concentration range in the assay from 10 μM to 0.316 nM.
After 60 min incubation at room temperature in the dark the FP signal is read. Fluorescence at 535 nm is measured using parallel and perpendicular filters to determine differences in rotation due to binding of the phosphorylated substrate peptide to the beads. Values are calculated as percentage of the difference in readout (ΔmPi) of the controls with and without ATP. EC50 values are determined by curve fitting of the experimental results using Activity Base.
In general terms: In fluorescence polarisation assays a small probe gives low polarisation when free and higher when bound to something large.

A short description of series [1]: Solubility determination of MK2 inhibitors (kinetic aqueous solubility, UPLC). As to conditions: aqueous buffer (system solution from pION inc.), 22 °C, pH 7.4, aqueous buffer, kinetic from dmso stock. The format is physicochemical. The method, then: The solubility can be determined using the Automated Kinetic Aqueous Solubility (AKASol) method, which is an HPLC-UV based method. The method is derived from the classical saturated shake-flask solubility method which has been adapted to the 96-well microtitre plate format, allowing the use of DMSO stock solutions. The solubility is determined by measuring the amount of compound in a saturated aqueous solution, quantified by an external calibration curve of the compound dissolved in DMSO. The solubility (mg/L) is measured at pH 7.4, at room temperature and the final concentration of DMSO in the sample solution is 1%.
The samples were prepared from 10 mM DMSO stock solutions. For each compound under investigation, a volume (9 μL) of the DMSO stock solution is transferred from the DMSO stock solution into 891 μL of buffer solution (system solution from pION inc.) in a 96 deep well plate, which equates to approximately 1% DMSO, using the Packard Multiprobe II robot liquid handling system. The pH of the buffer is manually adjusted at pH 7.4 by adding NaOH. This procedure is done in duplicate for each sample. After shaking for 24 h on a vortex mixer (Heidolph, Titramax 101) at 450 rpm and at room temperature (21-23° C.), 300 uL of the incubated sample is transferred from the deep well plate to a filter plate (PVDF, 0.45 um) on a vacuum manifold. To the filtrate (150 uL) 1-propanol (50 uL) is added to suppress precipitation and this solution is then analysed by UPLC. The solubility is determined using the calibration line previously prepared.
Preparation of the Standards and Built up of a Calibration Line
The calibration line is built with different concentrations of the test compound (standards), prepared from the same 10 mM DMSO stock solution. A volume (7 uL) from the same DMSO stock solution was diluted with DMSO (273 uL) leading to a solution with concentration of 0.25 mM. From this solution, three different injection volumes (0.2, 1, 1.8 uL) were injected on UPLC. The respective peak areas are plotted against amount of compound to build up the calibration line. The calibration line is used to determine the amount of dissolved compound in each sample, selecting the injection that gave peak areas closest to the peak area range of the calibration standards.

Setting [2] is: Table 1, compound of Formula (I) with spiro ring, pH 7.4, read-out: Solubility pH 7.4 (mg/L), Formula (I).
Where [3] appears, read: Table 1, compound of Formula (I) with spiro ring.
Where [4] appears, read: 1 μM ATP, 30 min pre-incubation, 2 h room temperature, read-out: pEC50 value (converted).
Where [5] appears, read: pH 7.4, room temperature, about 1% DMSO, 24 h shaking, read-out: solubility.

The structures appear in SMILES notation. Values after ≈ are worked out from the molar mass of the structure shown. Where two headings read alike, the source gives them in different places. Where only a bound is given, the exact number is not on record here.

T1 sequence (P49137 46-400 limits assumed): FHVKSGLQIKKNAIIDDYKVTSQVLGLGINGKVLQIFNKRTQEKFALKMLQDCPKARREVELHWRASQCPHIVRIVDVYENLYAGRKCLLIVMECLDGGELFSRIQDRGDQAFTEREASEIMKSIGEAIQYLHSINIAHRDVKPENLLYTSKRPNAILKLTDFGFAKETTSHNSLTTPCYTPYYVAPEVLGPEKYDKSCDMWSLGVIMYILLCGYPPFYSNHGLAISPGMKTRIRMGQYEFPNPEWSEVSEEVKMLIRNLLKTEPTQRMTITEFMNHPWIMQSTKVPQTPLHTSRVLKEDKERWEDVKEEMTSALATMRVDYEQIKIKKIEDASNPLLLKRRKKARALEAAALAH

For `O=C1NCC2(CCNCC2)c2[nH]c(-c3ccnc(-c4ccc5c(c4)OCO5)n3)cc21` [17_1 Formula (I)], the “pEC50, Formula (I)” value on MK2 enzyme (Table 2, compound of Formula (I) with amine-containing spiro ring) turned out to be 8.4. Further, the solubility at 24 h in series [1] (Table 2, compound of Formula (I) with amine-containing spiro ring, pH 7.4, read-out: Solubility pH 7.4 (mg/L), Formula (I)) was found to be 37 mg/L.
As to `CC(=O)c1ccc(-c2nccc(-c3cc4c([nH]3)C3(CCNCC3)CNC4=O)n2)cc1` [16_8 Formula (I)], on MK2 enzyme (Table 1, compound of Formula (I) with spiro ring, read-out: pEC50, Formula (I) (converted)), the EC50 is 6.31 nM. The solubility at 24 h in series [1] (setting [2]) is 35 mg/L.
In the case of `O=C1NCC2(CCNCC2)c2[nH]c(-c3ccnc(-c4cnc5ccccc5c4)n3)cc21` [16_2 Formula (I)], the “pEC50, Formula (I)” value on MK2 enzyme (setting [3]) was 8.2. Further, the solubility at 24 h in series [1] (setting [2]) stood at 23 mg/L.
For the compound `O=C(Nc1cc(-c2cc3c([nH]2)C2(CCNCC2)CNC3=O)ccn1)c1ccc(C(F)(F)F)cc1` [Example 12—1, N-(4-(4′-oxo-1′,4′,5′,6′-tetrahydrospiro[piperidine-4,7′-pyrrolo[3,2-c]pyridine]-2′-yl)pyridin-2-yl)-4-(trifluoromethyl)benzamide], the EC50 at MK2 enzyme (setting [4]) was ≤ 3.16 nM. The solubility at 24 h in series [1] (setting [5]) fell in the range of 20 to 50 mg/L (≈ 42.6 to 107 µM).
The matching figures for `O=C1NCC2(CCNCC2)c2[nH]c(-c3ccnc(-c4ccc(Cl)cc4F)n3)cc21` [1—32, 2′-(2-(4-chloro-2-fluorophenyl)pyrimidin-4-yl)-5′,6′-dihydrospiro[piperidine-4,7′-pyrrolo[3,2-c]pyridin]-4′(1′H)-one]: 3.16 to 31.6 nM and ≥ 50 mg/L.
For `CC(=O)c1ccc(-c2nccc(-c3cc4c([nH]3)C3(CCNCC3)CNC4=O)n2)cc1` [1—6, 2′-(2-(4-acetylphenyl)pyrimidin-4-yl)-5′,6′-dihydrospiro[piperidine-4,7′-pyrrolo[3,2-c]pyridin]-4′(1′H)-one], in that order: 3.16 to 31.6 nM and 20 to 50 mg/L (≈ 49.8 to 125 µM).
On to `O=C1NCC2(CCNC2)c2[nH]c(-c3ccnc(-c4cnc5ccccc5c4)n3)cc21` (stereo not drawn) [Example 6—1, 2′-(2-(quinolin-3-yl)pyrimidin-4-yl)-5′,6′-dihydrospiro[pyrrolidine-3,7′-pyrrolo[3,2-c]pyridin]-4′(1′H)-one], for which the EC50 at MK2 enzyme (setting [4]) is ≤ 3.16 nM. For the same compound, the solubility at 24 h in series [1] (setting [5]) was in the range of 20 to 50 mg/L (≈ 50.4 to 126 µM).
For the compound `CC(C)Cc1ccc(-c2nccc(-c3cc4c([nH]3)C3(CCNCC3)CNC4=O)n2)cc1` [1—23, 2′-(2-(4-isobutylphenyl)pyrimidin-4-yl)-5′,6′-dihydrospiro[piperidine-4,7′-pyrrolo[3,2-c]pyridin]-4′(1′H)-one], the EC50 on MK2 enzyme (setting [4]) was 3.16 to 31.6 nM. The solubility at 24 h in series [1] (setting [5]) was ≥ 50 mg/L.
As to `O=C1NCC2(CCNCC2)c2[nH]c(-c3ccnc(-c4ccc(C5CCCCC5)cc4)n3)cc21` [1—18, 2′-(2-(4-cyclohexylphenyl)pyrimidin-4-yl)-5′,6′-dihydrospiro[piperidine-4,7′-pyrrolo[3,2-c]pyridin]-4′(1′H)-one], at MK2 enzyme (setting [4]), the EC50 was 31.6 to 316 nM. The solubility at 24 h in series [1] (setting [5]) was 20 to 50 mg/L (≈ 45.3 to 113 µM).
The matching figures for `Nc1ncc(-c2nccc(-c3cc4c([nH]3)C3(CCNCC3)CNC4=O)n2)cn1` [1—2, 2′-(2′-amino-2,5′-bipyrimidin-4-yl)-5′,6′-dihydrospiro[piperidine-4,7′-pyrrolo[3,2-c]pyridin]-4′(1′H)-one]: ≤ 3.16 nM and 20 to 50 mg/L (≈ 53.1 to 133 µM).
For `O=C1NCC2(CCNCC2)c2[nH]c(-c3ccnc(-c4ccc(-c5ccccc5)cc4)n3)cc21` [1—12, 2′-(2-(biphenyl-4-yl)pyrimidin-4-yl)-5′,6′-dihydrospiro[piperidine-4,7′-pyrrolo[3,2-c]pyridin]-4′(1′H)-one], in that order: 3.16 to 31.6 nM and 20 to 50 mg/L (≈ 45.9 to 115 µM).
`O=C1NCC2(CCNC2)c2[nH]c(-c3ccnc(-c4cc5ccccc5o4)c3)cc21` (stereo not drawn) [6—5, 2′-(2-(benzofuran-2-yl)pyridin-4-yl)-5′,6′-dihydrospiro[pyrrolidine-3,7′-pyrrolo[3,2-c]pyridin]-4′(1′H)-one]: the EC50 at MK2 enzyme (setting [4]) is 3.16 to 31.6 nM. Further, the solubility at 24 h in series [1] (setting [5]) is ≥ 50 mg/L.
For `O=C1NCC2(CCNCC2)c2[nH]c(-c3ccnc(-c4nc5ccccc5s4)n3)cc21` [9—2, 2′-(2-(benzo[d]thiazol-2-yl)pyrimidin-4-yl)-5′,6′-dihydrospiro[piperidine-4,7′-pyrrolo[3,2-c]pyridin]-4′(1′H)-one], in that order: 3.16 to 31.6 nM and ≥ 50 mg/L.
Turning to `O=C1NCC2(CCNCC2)c2[nH]c(-c3ccnc(-c4nccs4)n3)cc21` [9—3, 2′-(2-(thiazol-2-yl)pyrimidin-4-yl)-5′,6′-dihydrospiro[piperidine-4,7′-pyrrolo[3,2-c]pyridin]-4′(1′H)-one], at MK2 enzyme (setting [4]), the EC50 is 31.6 to 316 nM. The solubility at 24 h in series [1] (setting [5]) was ≥ 50 mg/L.
For `O=C1NCC2(CCNCC2)c2[nH]c(-c3ccnc(-c4cccc(C(F)(F)F)c4)n3)cc21` [1—35, 2′-(2-(3-(trifluoromethyl)phenyl)pyrimidin-4-yl)-5′,6′-dihydrospiro[piperidine-4,7′-pyrrolo[3,2-c]pyridin]-4′(1′H)-one], in that order: 3.16 to 31.6 nM and ≥ 50 mg/L.
Consider `COc1cncc(-c2nccc(-c3cc4c([nH]3)C3(CCNCC3)CNC4=O)n2)c1` [1—3, 2′-(2-(5-methoxypyridin-3-yl)pyrimidin-4-yl)-5′,6′-dihydrospiro[piperidine-4,7′-pyrrolo[3,2-c]pyridin]-4′(1′H)-one], for which the EC50 at MK2 enzyme (setting [4]) is 3.16 to 31.6 nM. Also, the solubility at 24 h in series [1] (setting [5]) is 20 to 50 mg/L (≈ 51.2 to 128 µM).
For `CC(C)COc1ccc(-c2nccc(-c3cc4c([nH]3)C3(CCNCC3)CNC4=O)n2)cc1` [1—27, 2′-(2-(4-isobutoxyphenyl)pyrimidin-4-yl)-5′,6′-dihydrospiro[piperidine-4,7′-pyrrolo[3,2-c]pyridin]-4′(1′H)-one], in that order: 3.16 to 31.6 nM and ≥ 50 mg/L.
With `CC(=O)Nc1ccc(-c2nccc(-c3cc4c([nH]3)C3(CCNCC3)CNC4=O)n2)cn1` [1—8, N-(5-(4-(4′-oxo-1′,4′,5′,6′-tetrahydrospiro[piperidine-4,7′-pyrrolo[3,2-c]pyridine]-2′-yl)pyrimidin-2-yl)pyridin-2-yl)acetamide], at MK2 enzyme (setting [4]), the EC50 was 3.16 to 31.6 nM. The solubility at 24 h in series [1] (setting [5]) was ≥ 50 mg/L.
Regarding `O=C1NCC2(CCNCC2)c2[nH]c(-c3ccnc(-c4ccc5c(c4)OCO5)n3)cc21` [16_5 Formula (I)], on MK2 enzyme (setting [3]), the “pEC50, Formula (I)” value came to 8.4. Also, the solubility at 24 h in series [1] (setting [2]) turned out to be 37 mg/L.
On to `Cc1ccc(C(=O)Nc2cc(-c3cc4c([nH]3)C3(CCNCC3)CNC4=O)ccn2)cc1C` [12—2, 3,4-dimethyl-N-(4-(4′-oxo-1′,4′,5′,6′-tetrahydrospiro[piperidine-4,7′-pyrrolo[3,2-c]pyridine]-2′-yl)pyridin-2-yl)benzamide], for which the EC50 on MK2 enzyme (setting [4]) was ≤ 3.16 nM. Further, in series [1] (setting [5]), the solubility at 24 h is ≥ 50 mg/L.
Turning to `O=C1NCC2(CCCNC2)c2[nH]c(-c3ccnc(-c4cc5ccccc5o4)n3)cc21` (stereo not drawn) [Example 5—1, 2′-(2-(benzofuran-2-yl)pyrimidin-4-yl)-5′,6′-dihydrospiro[piperidine-3,7′-pyrrolo[3,2-c]pyridin]-4′(1′H)-one], the EC50 at MK2 enzyme (setting [4]) was 3.16 to 31.6 nM. The solubility at 24 h in series [1] (setting [5]) was ≥ 50 mg/L.

(Values after US8772286B2, “MK2 inhibitors” (Merck Sharp & Dohme B.V., priority 2009, dated 2014).)
